Patent US8163793B2, “Proline derivatives” (Hoffman-La Roche Inc., priority 2009, dated 2012)
Counter-ions that a name gives are not always drawn.

Tests used:
Cathepsin S = Cathepsin S (UniProt P25774); assay: Cathepsin enzyme inhibition assay (fluorogenic peptide substrate Z-Val-Val-Arg-AMC), Cathepsin S; format: biochemical, human and mouse; details: enzyme 1 nM, substrate 20 μM, pH 6.5; read-out: CatS IC50
Outline: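 Compounds were combined with 1 nM human or mouse enzyme, and substrate then started the reaction. The buffer was potassium phosphate (100 mM, pH 6.5) containing EDTA-Na 5 mM, Triton X-100 0.001% and […] 5 mM.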

Cat L = Cat L (UniProt P07711); assay: Cathepsin enzyme inhibition assay (fluorogenic peptide substrate Z-Val-Val-Arg-AMC), Cathepsin L; format: biochemical, human and mouse; details: enzyme 1 nM, substrate 20 μM, pH 6.5; read-out: CatL IC50
Outline: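 Fluorogenic cleavage of Z-Val-Val-Arg-AMC (20 μM) by 1 nM Cat L was monitored at ex 360/em 465 nm for 20 min, the linear phase. The buffer was 100 mM potassium phosphate pH 6.5 with 5 mM EDTA and DTT. IC50 values were derived by standard methods, in μM.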

SMILES	IC50 (Cathepsin S)	IC50 (Cat L)
CC(C)(C)OC(=O)N1C[C@H](S(=O)(=O)c2ccc(N3CCC(F)(F)CC3)cc2Cl)C[C@H]1C(=O)NC1(C#N)CC1 [Example 152, (2S,4R)-4-[2-Chloro-4-(4,4-difluoro-piperidin-1-yl)-benzenesulfonyl]-2-(1-cyano-cyclopropylcarbamoyl)-pyrrolidine-1-carboxylic acid tert.-butyl ester]	2.2 nM	30800 nM
Cc1cc(N2C[C@H](S(=O)(=O)c3ccccc3C(F)(F)F)C[C@H]2C(=O)NC2(C#N)CC2)n(C(C)C)n1 [Example 268, (2S,4R)-1-(2-Isopropyl-5-methyl-2H-pyrazol-3-yl)-4-(2-trifluoromethyl-benzenesulfonyl)-pyrrolidine-2-carboxylic acid (1-cyano-cyclopropyl)-amide]	2.35 nM	47300 nM
N#CC1(NC(=O)[C@@H]2C[C@@H](S(=O)(=O)c3ccccc3Cl)CN2C(=O)c2ccccc2)CC1 [Example 75, (2S,4R)-1-Benzoyl-4-(2-chloro-benzenesulfonyl)-pyrrolidine-2-carboxylic acid (1-cyano-cyclopropyl)-amide]	0.8 nM	6790 nM
Cc1cc(N2C[C@H](S(=O)(=O)c3ccccc3C(F)(F)F)C[C@H]2C(=O)NC2(C#N)CC2)n(CC(C)C)n1 [Example 340, (2S,4R)-1-(2-Isobutyl-5-methyl-2H-pyrazol-3-yl)-4-(2-trifluoromethyl-benzenesulfonyl)-pyrrolidine-2-carboxylic acid (1-cyano-cyclopropyl)-amide]	0.975 nM	26400 nM
N#CC1(NC(=O)C2CC(S(=O)(=O)c3ccccc3C(F)(F)F)CN2c2ccccc2-c2ccccc2)CC1 (stereo not drawn) [Example 343, 1-Biphenyl-2-yl-4-(2-trifluoromethyl-benzenesulfonyl)-pyrrolidine-2-carboxylic acid (1-cyano-cyclopropyl)-amide]	99.3 nM	≥ 25000 nM
N#CC1(NC(=O)[C@@H]2C[C@@H](S(=O)(=O)c3ccccc3Cl)CN2Cc2ccncc2)CC1 [Example 86, (2S,4R)-4-(2-Chloro-benzenesulfonyl)-1-pyridin-4-ylmethyl-pyrrolidine-2-carboxylic acid (1-cyano-cyclopropyl)-amide]	23 nM	14600 nM
CC(C)CC(=O)N1C[C@H](S(=O)(=O)c2ccc(Cl)cc2Cl)C[C@H]1C(=O)NC1(C#N)CC1 [Example 228, (2S,4R)-4-(2,4-Dichloro-benzenesulfonyl)-1-(3-methyl-butyryl)-pyrrolidine-2-carboxylic acid (1-cyano-cyclopropyl)-amide]	0.9 nM	15400 nM
CC(C)(C)OC(=O)N1C[C@H](S(=O)(=O)c2ccccc2C(F)(F)F)C[C@H]1C(=O)NC(C#N)C1CC1 (stereo partly drawn) [Example 38, (2S,4R)-2-[(Cyano-cyclopropyl-methyl)-carbamoyl]-4-(2-trifluoromethyl-benzenesulfonyl)-pyrrolidine-1-carboxylic acid tert-butyl ester]	5 nM	≥ 25000 nM

Continued by falling IC50 (Cathepsin S), values first:

IC50 (Cathepsin S)	IC50 (Cat L)	SMILES
0.8 nM	39900 nM	N#CC1(NC(=O)[C@@H]2C[C@@H](S(=O)(=O)c3ccc(N4CCOCC4)cc3C(F)(F)F)CN2)CC1 [Example 29, (2S,4R)-4-(4-Morpholin-4-yl-2-trifluoromethyl-benzenesulfonyl)-pyrrolidine-2-carboxylic acid (1-cyano-cyclopropyl)-amide hydrochloride]
0.725 nM	3990 nM	Cc1cc(N2C[C@H](S(=O)(=O)c3ccc(N4CC(F)(F)C4)cc3Cl)C[C@H]2C(=O)NC2(C#N)CC2)n(C2CCC2)n1 [Example 456, (2S,4R)-4-(2-chloro-4-(3,3-difluoroazetidin-1-yl)phenylsulfonyl)-N-(1-cyanocyclopropyl)-1-(1-cyclobutyl-3-methyl-1H-pyrazol-5-yl)pyrrolidine-2-carboxamide]
0.6 nM	1270 nM	Cc1cc(N2C[C@H](S(=O)(=O)c3ccc(N4CCN(C(C)(C)C)CC4)cc3Cl)C[C@H]2C(=O)NC2(C#N)CC2)n(C2CCOCC2)n1 [Example 481, (2S,4R)-4-[4-(4-tert-Butyl-piperazin-1-yl)-2-chloro-benzenesulfonyl]-1-[5-methyl-2-(tetrahydro-pyran-4-yl)-2H-pyrazol-3-yl]-pyrrolidine-2-carboxylic acid (1-cyano-cyclopropyl)-amide]
0.5 nM	≥ 25000 nM	N#Cc1cccc(N2CC(S(=O)(=O)c3ccccc3C(F)(F)F)CC2C(=O)NC2(C#N)CC2)c1 (stereo not drawn) [Example 358, 1-(3-Cyano-phenyl)-4-(2-trifluoromethyl-benzenesulfonyl)-pyrrolidine-2-carboxylic acid (1-cyano-cyclopropyl)-amide]
0.4 nM	≥ 25000 nM	CC(C)(C)C(=O)N1C[C@H](S(=O)(=O)c2ccc(F)cc2C(F)(F)F)C[C@H]1C(=O)NC1(C#N)CC1 [Example 210, (2S,4R)-1-(2,2-Dimethyl-propionyl)-4-(4-fluoro-2-trifluoromethyl-benzenesulfonyl)-pyrrolidine-2-carboxylic acid (1-cyano-cyclopropyl)-amide]
0.4 nM	7580 nM	N#CC1(NC(=O)[C@@H]2C[C@@H](S(=O)(=O)c3ccc(Cl)cc3Cl)CN2C(=O)C2(C(F)(F)F)CCC2)CC1 [Example 169, (2S,4R)-4-(2,4-Dichloro-benzenesulfonyl)-1-(1-trifluoromethyl-cyclobutanecarbonyl)-pyrrolidine-2-carboxylic acid (1-cyano-cyclopropyl)-amide]
0.3 nM	2480 nM	CCN1CCN(c2ccc(S(=O)(=O)[C@@H]3C[C@@H](C(=O)NC4(C#N)CC4)N(C(=O)C4(C(F)(F)F)CC4)C3)c(Cl)c2)CC1 [Example 142, (2S,4R)-4-[2-Chloro-4-(4-ethyl-piperazin-1-yl)-benzenesulfonyl]-1-(1-trifluoromethyl-cyclopropanecarbonyl)-pyrrolidine-2-carboxylic acid (1-cyano-cyclopropyl)-amide formiate]
0.295 nM	102 nM	C[C@H](Oc1ccc(S(=O)(=O)[C@@H]2C[C@@H](C(=O)NC3(C#N)CC3)N(C(=O)C3(c4ccc(Cl)nc4)CC3)C2)c(Cl)c1)C(F)(F)F [Example 381, (2S,4R)-1-[1-(6-Chloro-pyridin-3-yl)-cyclopropanecarbonyl]-4-[2-chloro-4-((S)-2,2,2-trifluoro-1-methyl-ethoxy)-benzenesulfonyl]-pyrrolidine-2-carboxylic acid (1-cyano-cyclopropyl)-amide]
0.08 nM	42.7 nM	N#CC1(NC(=O)[C@@H]2C[C@@H](S(=O)(=O)c3ccc(N4CCN5CCC[C@H]5C4)cc3Cl)CN2C(=O)C2(c3ccc(Cl)nc3)CC2)CC1 [Example 373, (2S,4R)-4-((S)-2-Chloro-4-hexahydro-pyrrolo[1,2-a]pyrazin-2-yl-benzenesulfonyl)-1-[1-(6-chloro-pyridin-3-yl)-cyclopropanecarbonyl]-pyrrolidine-2-carboxylic acid (1-cyano-cyclopropyl)-amide; Compound with Formic Acid]
0.04 nM	68 nM	N#CC1(NC(=O)[C@@H]2C[C@@H](S(=O)(=O)c3ccc(-n4ccnc4)cc3Cl)CN2C(=O)C2(c3ccc(Cl)nc3)CC2)CC1 [Example 382, (2S,4R)-4-(2-Chloro-4-imidazol-1-yl-benzenesulfonyl)-1-[1-(6-chloro-pyridin-3-yl)-cyclopropanecarbonyl]-pyrrolidine-2-carboxylic acid (1-cyano-cyclopropyl)-amide]
